Patent publication US20240140957A1, “BRIDGED COMPOUNDS AS KRAS G12D INHIBITOR AND DEGRADER AND THE USE THEREOF” (BeiGene Switzerland GmbH, priority 2021, published 2024)

Columns and labels:
[1] = target: GDP-loaded KRAS G12D (Homo sapiens, UniProt P01116, G12D); assay: KRAS G12D Probe Displacement Assay; assay type: binding; details: KRAS G12D 0.5 nM, biotinylated probe 2 4 nM; read-out: KRAS G12D Probe Displacement Assay IC50
[2] = target: GDP-loaded WT KRAS (Homo sapiens, UniProt P01116); assay: KRAS WT Probe Displacement Assay; assay type: binding; details: WT KRAS 3 nM, biotinylated probe 1 60 nM; read-out: KRAS WT Probe Displacement Assay IC50
[3] = tested on: pERK1/2 (THR202/TYR204) in AsPC-1 cells; assay: pERK Assay (HTRF) in AsPC-1 cells; assay type: cell-based; details: Homo sapiens, ASPC1, 2 h compound treatment

Sequence of GDP-loaded WT KRAS (P01116 1-188 isoform P01116-2): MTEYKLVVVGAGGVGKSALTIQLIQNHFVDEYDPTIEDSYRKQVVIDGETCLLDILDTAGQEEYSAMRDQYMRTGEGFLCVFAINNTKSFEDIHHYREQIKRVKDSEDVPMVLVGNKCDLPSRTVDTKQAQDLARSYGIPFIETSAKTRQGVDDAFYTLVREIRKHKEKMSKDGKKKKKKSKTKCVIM
Sequence of GDP-loaded KRAS G12D (P01116 1-188 isoform P01116-2 G12D): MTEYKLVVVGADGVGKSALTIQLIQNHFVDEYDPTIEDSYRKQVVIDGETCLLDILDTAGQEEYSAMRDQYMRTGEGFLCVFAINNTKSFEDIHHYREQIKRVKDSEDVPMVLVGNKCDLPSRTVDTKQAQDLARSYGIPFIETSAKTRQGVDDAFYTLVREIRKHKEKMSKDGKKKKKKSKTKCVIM

C=C(C)c1cc2c(N3CC4CCC(C3)N4)nc(OC[C@@]34CCCN3C[C@H](F)C4)nc2c(F)c1-c1ccc(F)c2sc(N)nc12 [Example E69, 4-(4-(3,8-diazabicyclo[3.2.1]octan-3-yl)-8-fluoro-2-(((2R,7aS)-2-fluorotetrahydro-1H-pyrrolizin-7a(5H)-yl)methoxy)-6-(prop-1-en-2-yl)quinazolin-7-yl)-7-fluorobenzo[d]thiazol-2-amine] gave an IC50 [1] of 0.00072 µM, an IC50 [2] of 0.072 µM and an IC50 [3] of 0.216 µM.
Work on CN(C)CC1(COc2nc(N3CC4CCC(C3)N4)c3cc(Cl)c(-c4ccc(F)c5sc(N)nc45)c(F)c3n2)CC1 [Example E70, 4-(4-(3,8-diazabicyclo[3.2.1]octan-3-yl)-6-chloro-2-((1-((dimethylamino)methyl)cyclopropyl)methoxy)-8-fluoroquinazolin-7-yl)-7-fluorobenzo[d]thiazol-2-amine] yielded an IC50 [1] of 0.00035 µM, an IC50 [2] of 0.032 µM and an IC50 [3] of 0.927 µM.
CC(C)c1cc2c(N3CC4CCC(C3)N4)nc(OC[C@@]34CCCN3C[C@H](F)C4)nc2c(F)c1-c1ccc(F)c2sc(N)nc12 [Example E71, 4-(4-(3,8-diazabicyclo[3.2.1]octan-3-yl)-8-fluoro-2-(((2R,7aS)-2-fluorotetrahydro-1H-pyrrolizin-7a(5H)-yl)methoxy)-6-isopropylquinazolin-7-yl)-7-fluorobenzo[d]thiazol-2-amine] gave an IC50 [1] of 0.00059 µM, an IC50 [2] of 0.0378 µM and an IC50 [3] of 0.137 µM.
With C[C@@H](CN1CCC(F)CC1(C)C)Oc1nc(N2CC3CCC(C2)N3)c2cc(C(F)(F)F)c(-c3ccc(F)c4sc(N)nc34)c(F)c2n1 (stereo partly drawn) [Example E72, 4-(4-(3,8-diazabicyclo[3.2.1]octan-3-yl)-8-fluoro-2-(((2S)-1-(4-fluoro-2,2-dimethylpiperidin-1-yl)propan-2-yl)oxy)-6-(trifluoromethyl)quinazolin-7-yl)-7-fluorobenzo[d]thiazol-2-amine] the IC50 [1] was 0.0039 µM, the IC50 [2] was 0.12 µM and the IC50 [3] was 1.07 µM.
Cc1ccc(-c2c(C(F)(F)F)cc3c(N4CC5CCC(C4)N5)nc(OC[C@@]45CCCN4C[C@H](F)C5)nc3c2F)c2nc(N)sc12 [Example E73, 4-(4-(3,8-diazabicyclo[3.2.1]octan-3-yl)-8-fluoro-2-(((2R,7aS)-2-fluorotetrahydro-1H-pyrrolizin-7a(5H)-yl)methoxy)-6-(trifluoromethyl)quinazolin-7-yl)-7-methylbenzo[d]thiazol-2-amine] showed an IC50 [1] of 0.00057 µM, an IC50 [2] of 0.0155 µM and an IC50 [3] of 0.068 µM.
Nc1nc2c(-c3c(C(F)(F)F)cc4c(N5CC6CC(C5)N6)nc(OC[C@@]56CCCN5C[C@H](F)C6)nc4c3F)ccc(F)c2s1 [Example E74, 4-(4-(3,6-diazabicyclo[3.1.1]heptan-3-yl)-8-fluoro-2-(((2R,7aS)-2-fluorotetrahydro-1H-pyrrolizin-7a(5H)-yl)methoxy)-6-(trifluoromethyl)quinazolin-7-yl)-7-fluorobenzo[d]thiazol-2-amine] showed an IC50 [1] of 0.00042 µM, an IC50 [2] of 0.0048 µM and an IC50 [3] of 0.349 µM.
In the case of Nc1nc2c(-c3c(Cl)cc4c(N5CC6CCC(C5)N6)nc(OC[C@@]56CCCN5C[C@H](F)C6)nc4c3F)c(F)cc(F)c2s1 [Example E75, 4-(4-(3,8-diazabicyclo[3.2.1]octan-3-yl)-6-chloro-8-fluoro-2-(((2R,7aS)-2-fluorotetrahydro-H-pyrrolizin-7a(5H)-yl)methoxy)quinazolin-7-yl)-5,7-difluorobenzo[d]thiazol-2-amine], the IC50 [1] is reported as 0.00023 µM, the IC50 [2] is reported as 0.0018 µM and the IC50 [3] is reported as 0.04 µM.
For Cc1c(-c2ccc(F)c3sc(N)nc23)c(C(F)(F)F)cc2c(N3CC4CCC(C3)N4)nc(OC[C@@]34CCCN3C[C@H](F)C4)nc12 [Example E76, 4-(4-(3,8-diazabicyclo[3.2.1]octan-3-yl)-2-(((2R,7aS)-2-fluorotetrahydro-1H-pyrrolizin-7a(5H)-yl)methoxy)-8-methyl-6-(trifluoromethyl)quinazolin-7-yl)-7-fluorobenzo[d]thiazol-2-amine], the IC50 [1] was 0.00012 µM, the IC50 [2] was 0.0048 µM and the IC50 [3] was 0.058 µM.
For Cc1cc(N)nc(-c2c(C(F)(F)F)cc3c(N4CC5CCC(C4)N5)nc(OC[C@@]45CCCN4C[C@H](F)C5)nc3c2F)c1C(F)(F)F [Example E77, 6-(4-(3,8-diazabicyclo[3.2.1]octan-3-yl)-8-fluoro-2-(((2R,7aS)-2-fluorotetrahydro-1H-pyrrolizin-7a(5H)-yl)methoxy)-6-(trifluoromethyl)quinazolin-7-yl)-4-methyl-5-(trifluoromethyl)pyridin-2-amine], the IC50 [1] was 0.00052 µM, the IC50 [2] was 0.033 µM and the IC50 [3] was 0.122 µM.
Compound Cc1c(F)c(N)nc(-c2c(Cl)cc3c(N4CC5CCC(C4)N5)nc(OC[C@@]45CCCN4C[C@H](F)C5)nc3c2F)c1C(F)(F)F [Example E78, 6-(4-(3,8-diazabicyclo[3.2.1]octan-3-yl)-6-chloro-8-fluoro-2-(((2R,7aS)-2-fluorotetrahydro-1H-pyrrolizin-7a(5H)-yl)methoxy)quinazolin-7-yl)-3-fluoro-4-methyl-5-(trifluoromethyl)pyridin-2-amine] has an IC50 [1] of 0.00099 µM, an IC50 [2] of 0.101 µM and an IC50 [3] of 0.159 µM.
In the case of Cc1cc(N)nc(-c2c(F)cc3c(N4CC5CCC(C4)N5)nc(OC[C@@]45CCCN4C[C@H](F)C5)nc3c2F)c1C(F)(F)F [Example E79, 6-(4-(3,8-diazabicyclo[3.2.1]octan-3-yl)-6,8-difluoro-2-(((2R,7aS)-2-fluorotetrahydro-1H-pyrrolizin-7a(5H)-yl)methoxy)quinazolin-7-yl)-4-methyl-5-(trifluoromethyl) pyridin-2-amine], the IC50 [1] is reported as 0.0011 µM, the IC50 [2] is reported as 0.178 µM and the IC50 [3] is reported as 0.153 µM.
Nc1cc(Cl)c(C(F)(F)F)c(-c2c(Cl)cc3c(N4CC5CCC(C4)N5)nc(OC[C@@]45CCCN4C[C@H](F)C5)nc3c2F)c1 [Example E80, 3-(4-(3,8-diazabicyclo[3.2.1]octan-3-yl)-6-chloro-8-fluoro-2-(((2R,7aS)-2-fluorotetrahydro-1H-pyrrolizin-7a(5H)-yl)methoxy)quinazolin-7-yl)-5-chloro-4-(trifluoromethyl)aniline] showed an IC50 [1] of 0.00066 µM, an IC50 [2] of 0.046 µM and an IC50 [3] of 0.307 µM.
Work on Oc1cccc(F)c1-c1c(Cl)cc2c(N3CC4CCC(C3)N4)nc(OC[C@@]34CCCN3C[C@H](F)C4)nc2c1F [Example E81, 2-(4-(3,8-diazabicyclo[3.2.1]octan-3-yl)-6-chloro-8-fluoro-2-(((2R,7aS)-2-fluorotetrahydro-1H-pyrrolizin-7a(5H)-yl)methoxy)quinazolin-7-yl)-3-fluorophenol] yielded an IC50 [1] of 0.0069 µM, an IC50 [2] of 0.99 µM and an IC50 [3] of 2.38 µM.
Work on Nc1nc2c(-c3c(C(F)(F)F)cc4c(N5CC6CCC(C5)N6)nc(OC[C@@]56CCCN5C[C@H](F)C6)nc4c3Cl)ccc(Cl)c2s1 [Example E82, 4-(4-(3,8-diazabicyclo[3.2.1]octan-3-yl)-8-chloro-2-(((2R,7aS)-2-fluorotetrahydro-1H-pyrrolizin-7a(5H)-yl)methoxy)-6-(trifluoromethyl)quinazolin-7-yl)-7-chlorobenzo[d]thiazol-2-amine] yielded an IC50 [1] of 0.0003 µM, an IC50 [2] of 0.005 µM and an IC50 [3] of 0.064 µM.
With Nc1nc2c(-c3c(C(F)(F)F)cc4c(N5CC6CCC(C5)N6)nc(OC[C@@]56CCCN5C[C@H](F)C6)nc4c3F)ccc(Cl)c2s1 [Example E83, 4-(4-(3,8-diazabicyclo[3.2.1]octan-3-yl)-8-fluoro-2-(((2R,7aS)-2-fluorotetrahydro-1H-pyrrolizin-7a(5H)-yl)methoxy)-6-(trifluoromethyl)quinazolin-7-yl)-7-chlorobenzo[d]thiazol-2-amine] the IC50 [1] was 0.00013 µM, the IC50 [2] was 0.0038 µM and the IC50 [3] was 0.061 µM.
Nc1nc2c(-c3c(C(F)(F)F)cc4c(N5CC6CCC(C5)N6)nc(OC[C@@]56CCCN5C[C@H](F)C6)nc4c3F)c(F)cc(F)c2s1 [Example E84, 4-(4-(3,8-diazabicyclo[3.2.1]octan-3-yl)-8-fluoro-2-(((2R,7aS)-2-fluorotetrahydro-1H-pyrrolizin-7a(5H)-yl)methoxy)-6-(trifluoromethyl)quinazolin-7-yl)-5,7-difluorobenzo[d]thiazol-2-amine] was tested, and the IC50 [1] was 0.00036 µM, the IC50 [2] was 0.0024 µM and the IC50 [3] was 0.028 µM.
With Nc1nc2c(-c3c(C(F)(F)F)cc4c(N5CC6CCC(C5)N6)nc(OC[C@@]56CCCN5C[C@H](F)C6)nc4c3F)cc(F)c(F)c2s1 [Example E85, 4-(4-(3,8-diazabicyclo[3.2.1]octan-3-yl)-8-fluoro-2-(((2R,7aS)-2-fluorotetrahydro-1H-pyrrolizin-7a(5H)-yl)methoxy)-6-(trifluoromethyl)quinazolin-7-yl)-6,7-difluorobenzo[d]thiazol-2-amine] the IC50 [1] was 0.00021 µM, the IC50 [2] was 0.0056 µM and the IC50 [3] was 0.124 µM.
CC(F)CNC1C[C@H]2CC[C@@H]1N2c1nc(OC[C@@]23CCCN2C[C@H](F)C3)nc2c(F)c(-c3ccc(F)c4sc(N)nc34)c(C(F)(F)F)cc12 (stereo partly drawn) [Example E86, 7-fluoro-4-(8-fluoro-4-((1S,4R)-2-((2-fluoropropyl)amino)-7-azabicyclo[2.2.1]heptan-7-yl)-2-(((2R,7aS)-2-fluorotetrahydro-1H-pyrrolizin-7a(5H)-yl)methoxy)-6-(trifluoromethyl)quinazolin-7-yl)benzo[d]thiazol-2-amine] was tested, and the IC50 [1] was 0.0014 µM, the IC50 [2] was 0.016 µM and the IC50 [3] was 0.32 µM.
Compound Nc1nc2c(-c3c(OC(F)(F)F)cc4c(N5CC6CCC(C5)N6)nc(OC[C@@]56CCCN5C[C@H](F)C6)nc4c3F)ccc(F)c2s1 [Example E87, 4-(4-(3,8-diazabicyclo[3.2.1]octan-3-yl)-8-fluoro-2-(((2R,7aS)-2-fluorotetrahydro-1H-pyrrolizin-7a(5H)-yl)methoxy)-6-(trifluoromethoxy)quinazolin-7-yl)-7-fluorobenzo[d]thiazol-2-amine] has an IC50 [1] of 0.00024 µM, an IC50 [2] of 0.025 µM and an IC50 [3] of 0.112 µM.
